Where “and” joins values, the source holds several entries; their conditions need not be identical. Equal values may be shown once. Inconclusive results and toxic doses are left out.

The assay relates to P388 leukemia ip, CD2F1 mice, survival T/C. As to the kind of experiment: NCI In Vivo Anticancer Drug Screen. Data for tumor model P388 Leukemia (intraperitoneal) in CD2F1 (CDF1) mice. As to conditions: endpoint: median survival time, higher = longer survival. The method in brief:
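Mice carrying the transplanted tumor received test compound or vehicle. Survival was recorded in each group, and the value is the treated-group measurement divided by that of the vehicle-treated control group.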

Setting [1] is: dose: 50.0 mg/kg/injection, schedule: Q01DX005 (ip), vehicle: Klucel (hydroxypropylcellulose) (HPC).
The mark [2] stands for this setting: dose: 50.0 mg/kg/injection, schedule: Q01DX005 (ip), vehicle: saline with Tween-80.
Where [3] appears, read: dose: 100.0 mg/kg/injection, schedule: Q01DX005 (ip), vehicle: saline with Tween-80.
Where [4] appears, read: dose: 200.0 mg/kg/injection, schedule: Q01DX005 (ip), vehicle: saline with Tween-80.
[5] abbreviates: dose: 50.0 mg/kg/injection, schedule: Q01DX009 (ip), vehicle: Klucel (hydroxypropylcellulose) (HPC).
The mark [6] stands for this setting: dose: 50.0 mg/kg/injection, schedule: Q01DX009 (ip), vehicle: saline.
Setting [7] is: dose: 100.0 mg/kg/injection, schedule: Q01DX009 (ip), vehicle: saline.
Where [8] appears, read: dose: 200.0 mg/kg/injection, schedule: Q01DX009 (ip), vehicle: saline.
The mark [9] stands for this setting: dose: 25.0 mg/kg/injection, schedule: Q04DX002 (ip), vehicle: saline.
Where [10] appears, read: dose: 50.0 mg/kg/injection, schedule: Q04DX002 (ip), vehicle: saline.
Setting [11] is: dose: 100.0 mg/kg/injection, schedule: Q04DX002 (ip), vehicle: saline.
Where [12] appears, read: dose: 100.0 mg/kg/injection, schedule: Q01DX009 (ip), vehicle: Klucel (hydroxypropylcellulose) (HPC).
The mark [13] stands for this setting: dose: 25.0 mg/kg/injection, schedule: Q01DX009 (ip), vehicle: saline with Tween-80.
Setting [14] is: dose: 50.0 mg/kg/injection, schedule: Q01DX009 (ip), vehicle: saline with Tween-80.
The mark [15] stands for this setting: dose: 100.0 mg/kg/injection, schedule: Q01DX009 (ip), vehicle: saline with Tween-80.
The mark [16] stands for this setting: dose: 200.0 mg/kg/injection, schedule: Q01DX009 (ip), vehicle: saline with Tween-80.

Consider `Cn1cc(C2NC(=O)c3ccccc3N2)c2ccccc21` (configuration not stated), for which the T/C is 102 % of control (dose: 25.0 mg/kg/injection, schedule: Q01DX005 (ip), vehicle: Klucel (hydroxypropylcellulose) (HPC)); 106 % of control under setting [1]; 113 % of control (dose: 88.0 mg/kg/injection, schedule: Q01DX005 (ip), vehicle: Klucel (hydroxypropylcellulose) (HPC)); 115 % of control (dose: 100.0 mg/kg/injection, schedule: Q01DX005 (ip), vehicle: Klucel (hydroxypropylcellulose) (HPC)).
For the molecule `CC(C)=C1CC(C)(C)N2CCCC12` (configuration not stated), the T/C under setting [1] is 100 % of control.
Consider `CCC1(C)COC(=O)C1=C(C(=O)OC)C(=O)OC` (configuration not stated), for which the T/C is, setting by setting: (dose: 100.0 mg/kg/injection, schedule: Q04DX003 (ip), vehicle: saline) 112 % of control; (dose: 200.0 mg/kg/injection, schedule: Q04DX003 (ip), vehicle: saline) 113 % of control; (dose: 400.0 mg/kg/injection, schedule: Q04DX003 (ip), vehicle: saline) 105 % of control.
`CC(=O)/C=C/c1ccc(OC(=O)/C=C/c2ccccc2)cc1`: the T/C runs as follows: under setting [2], 101 % of control; under setting [3], 100 % of control; under setting [4], 98 % of control.
For `CCN(CCO)CC(O)Cn1cnc2c(N)ncnc21` (configuration not stated) (tested in a mixture with another compound), the T/C is 97 % of control (dose: 60.0 mg/kg/injection, schedule: Q01DX005 (ip), vehicle: saline); 100 % of control (dose: 120.0 mg/kg/injection, schedule: Q01DX005 (ip), vehicle: saline); 95 % of control (dose: 240.0 mg/kg/injection, schedule: Q01DX005 (ip), vehicle: saline).
Consider `Nc1nc(N)c(-c2ccc(Cl)c(Cl)c2)c(CP(Cl)(Cl)(Cl)Br)n1`, for which the T/C runs as follows: (dose: 6.25 mg/kg/injection, schedule: Q01DX009 (ip), vehicle: Klucel (hydroxypropylcellulose) (HPC)) 96 % of control; (dose: 12.5 mg/kg/injection, schedule: Q01DX009 (ip), vehicle: Klucel (hydroxypropylcellulose) (HPC)) 104 % of control; (dose: 25.0 mg/kg/injection, schedule: Q01DX009 (ip), vehicle: Klucel (hydroxypropylcellulose) (HPC)) 109 % of control; under setting [5], 114 % of control.
For the molecule `N=C(N)c1ccc(/C=C/c2cc3cc(C(=N)N)ccc3o2)cc1`, the T/C was 112 % of control (dose: 12.5 mg/kg/injection, schedule: Q04DX003 (ip), vehicle: suspension in saline); 118 % of control (dose: 25.0 mg/kg/injection, schedule: Q04DX003 (ip), vehicle: suspension in saline); 120 % of control (dose: 50.0 mg/kg/injection, schedule: Q04DX003 (ip), vehicle: suspension in saline); 178 % of control (dose: 100.0 mg/kg/injection, schedule: Q04DX003 (ip), vehicle: suspension in saline).
Regarding `C=Cc1ccc(NC(=O)CCn2ccc(N)nc2=O)cc1`, the T/C by setting is: (dose: 100.0 mg/kg/injection, schedule: Q01DX001 (ip), vehicle: saline with Tween-80) 102 % of control; (dose: 200.0 mg/kg/injection, schedule: Q01DX001 (ip), vehicle: saline with Tween-80) 102 % of control; (dose: 400.0 mg/kg/injection, schedule: Q01DX001 (ip), vehicle: saline with Tween-80) 103 % of control.
Take `COc1ccc2c(c1)CN(CCc1ccccc1)CO2`: the T/C reads like this: under setting [2], 101 % of control; under setting [3], 101 % of control; under setting [4], 97 % of control.
On to `CC(=O)NO`, for which the T/C is 104 % of control under setting [6], 96 % of control under setting [7] and 103 % of control under setting [8].
`CS(=O)CSCC(N)C(=O)O` (configuration not stated): the T/C was 91 % of control (dose: 25.0 mg/kg/injection, schedule: Q01DX009 (ip), vehicle: water); 100 % of control (dose: 50.0 mg/kg/injection, schedule: Q01DX009 (ip), vehicle: water); 93 % of control (dose: 100.0 mg/kg/injection, schedule: Q01DX009 (ip), vehicle: water); 99 % of control (dose: 200.0 mg/kg/injection, schedule: Q01DX009 (ip), vehicle: water); 96 % of control (dose: 400.0 mg/kg/injection, schedule: Q01DX009 (ip), vehicle: water).
`CC[C@@]12CN3CCc4c([nH]c5ccccc45)[C@@](C(=O)OC)(c4cc5c(cc4OC)N(C=O)[C@H]4[C@@](O)(C(=O)OC)[C@H](OC(C)=O)[C@]6(CC)C=CCN7CC[C@]54[C@@H]76)C[C@H](C3=O)[C@@H]1O2`: the T/C was 113 % of control and 118 % of control (dose: 4.0 mg/kg/injection, schedule: Q01DX001 (ip), vehicle: water); 115 % of control and 116 % of control (dose: 8.0 mg/kg/injection, schedule: Q01DX001 (ip), vehicle: water); 118 % of control (dose: 32.0 mg/kg/injection, schedule: Q01DX001 (ip), vehicle: water).
For `[Co].[NH-]CCC[NH-].[NH-]CCC[NH-].[NH-]CCC[NH-]`, the T/C runs as follows: under setting [9], 99 % of control; under setting [10], 98 % of control; under setting [11], 100 % of control.
Take `O=S(=O)(NCCSSCCNS(=O)(=O)c1cccs1)c1cccs1`: the T/C is 88 % of control under setting [5]; 92 % of control under setting [12]; 100 % of control (dose: 200.0 mg/kg/injection, schedule: Q01DX009 (ip), vehicle: Klucel (hydroxypropylcellulose) (HPC)).
Regarding `O=c1c2cnc(-c3ccccc3)nc2oc2ccc3ccccc3c12`, the T/C reads like this: (dose: 12.5 mg/kg/injection, schedule: Q01DX009 (ip), vehicle: saline with Tween-80) 97 % of control; under setting [13], 96 % of control; under setting [14], 87 % of control and 92 % of control; under setting [15], 90 % of control.
As to `Nc1nn2nnnc2c2ccccc12`, the T/C under setting [9] is 107 % of control; the T/C under setting [10] is 96 % of control; the T/C under setting [11] is 101 % of control and 89 % of control; the T/C (dose: 400.0 mg/kg/injection, schedule: Q04DX002 (ip), vehicle: saline) is 92 % of control.
For the molecule `CCOC(=O)CCC1(C)Sc2ccccc2N1C` (configuration not stated), the T/C by setting is: (dose: 60.0 mg/kg/injection, schedule: Q01DX005 (ip), vehicle: saline with Tween-80) 107 % of control; (dose: 120.0 mg/kg/injection, schedule: Q01DX005 (ip), vehicle: saline with Tween-80) 110 % of control; (dose: 240.0 mg/kg/injection, schedule: Q01DX005 (ip), vehicle: saline with Tween-80) 107 % of control.
For `O=C(N=C=S)c1ccc(Cl)c(Cl)c1`, the T/C was 94 % of control under setting [13], 95 % of control under setting [14], 95 % of control under setting [15] and 103 % of control under setting [16].
`N=C(N)c1ccc(NC(=O)c2cc3ccc(C(=N)N)cc3o2)cc1`: the T/C by setting is: (dose: 12.5 mg/kg/injection, schedule: Q04DX003 (ip), vehicle: saline) 101 % of control; (dose: 25.0 mg/kg/injection, schedule: Q04DX003 (ip), vehicle: saline) 101 % of control; (dose: 50.0 mg/kg/injection, schedule: Q04DX003 (ip), vehicle: saline) 102 % of control.
`CCCCOCN(COCCCC)c1ccccn1`: the T/C reads like this: under setting [13], 103 % of control; under setting [14], 100 % of control; under setting [6], 111 % of control; under setting [15], 116 % of control; under setting [7], 122 % of control; under setting [16], 116 % of control. Besides, under setting [8], the T/C is 117 % of control.
On to `CS1(=O)=NC(=NC#N)c2ccccc21` (configuration not stated), for which the T/C by setting is: under setting [5], 101 % of control; under setting [12], 94 % of control.
